Data on two compounds can be found in patent US20200022964A1, “COMPOSITIONS AND METHODS FOR TREATMENT OF INFLAMMATORY AUTOIMMUNE DISEASES” (New York University, priority 2018, published 2020).

One assay deals with TNF-α. Put plainly: ELISA of TNF-α induced release of IL-1β and IL-6 in BMDMs. It is filed as cell-based, mice. Conditions: TNF-α 10 ng/mL; for TNF-α induced releases of IL-1β and IL-6: FFD 1, 10 μM, TFD 0.1, 1 μM, 48 hours. As to the method: (§1) Primary bone marrow derived macrophages (BMDMs) extraction. BMDMs were isolated from C57BL/6 and TNF-tg mice. After mice were sacrificed by cervical dislocation, the tibia and femur were isolated and both ends of the bones were cut to open the medullary cavity. Bone marrow cells were collected by centrifuge at 13000 g for 90 seconds and seeded in 6-well plates. Prior to their use in experiments, M-CSF (10 ng/ml, 576406, Biolegend) was added for 6 days to the BMDM culture medium.
A general note: ELISA stands for enzyme-linked immunosorbent assay.

Assay [1] deals with osteoclastogenesis in BMDMs. In words: Osteoclastogenesis in BMDMs (TRAP staining). It counts as cell-based, mice. The conditions noted are these: RANKL 100 ng/mL and TNF-α 10 ng/mL; FFD 10 μM, TFD 1 μM; 4 days. How it is done:
Osteoclastogenesis. […] The cells were fixed with formalin and stained for tartrate-resistant acid phosphatase (TRAP) with a TRAP solution containing 100 mM sodium acetate buffer (pH 5.0), 50 mM sodium tartrate, 0.1 mg/ml sodium naphtol AS-MX phosphate, 0.6 mg/ml Fast Violet LB, and 0.1% Triton X-100. TRAP-positive cells appeared dark red and TRAP-positive multinucleated cells containing more than three nuclei (TRAP-MNCs) were visualized using light microscopy.

The target of another assay is TNF-α and TNFR1 (Homo sapiens, UniProt P19438). Put plainly: Solid phase binding of TNF-α to TNFR1. How it is done:
Solid phase binding. […] Briefly, a 96-well ELISA plate was coated with 100 μL of 0.5 ng/μL TNFR1 at 4° C. overnight. The plate was washed with PBST 5 times, and 300 μL blocking buffer was added to each well followed by incubation at room temperature for 1 hour. After discarding the blocking buffer, 50 μL buffer containing drugs at concentrations ranging from 0.1 nM to 10^5 nM were added to the plate for 1 hour at room temperature. Three wells incubated with bovine serum albumin (BSA) served as negative controls and three wells containing TNF-α were set as positive controls. Without washing, 50 μL buffer containing 10 ng biotin-labeled TNF-α was added to each well and incubated at room temperature for 2 hours. The plate was washed and 100 μL buffer containing streptavidin-HPR was added and incubated at room temperature for 30 minutes. After a final wash, 100 μL TMB buffer was added to each well and the reaction was stopped when the positive control group turned blue. The plate was read by automatic plate reader at 450 nm.

The test system of another assay is p38 or ERK1/2. In words: Western blot of TNF activated phosphorylation of p38 and ERK1/2 in BMDMs. It is filed as cell-based, mice. The conditions noted are these: TNF-α 10 ng/mL; FFD 10 μM. As to the method:
as §1
(§2) Western blot. After protein samples were prepared, samples were separated by SDS-PAGE and transferred to a nitrocellulose (NC) membrane (162-0115, BIO-RAD) using a wet transfer system. Membrane was blocked in 5% (w/v) non-fat milk in TBST for half an hour at room temperature, followed by incubation with appropriate primary antibody overnight at 4° C. After washing, appropriate secondary antibody was added for 1 hour at room temperature. The bands on the membrane were developed by chemiluminescent (ECL) substrate and visualized by GelDoc system.

Assay [2] has as its target T1, cPLA2 (Homo sapiens, UniProt P47712).
T1 construct: expressed in transfected cells; host or cells: RAW264.7
In words: cPLA2 activity assay in cPLA2-transfected RAW264.7 cells. It counts as cell-based. Conditions: TNF-α 10 ng/ml; TFD 0.1 or 1 μM, FFD 1 or 10 μM overnight. As to the method:
cPLA2 activity assay. RAW264.7 cells were transfected with an expression plasmid encoding cPLA2. 24 hours later, the transfected cells were treated with TNF-α (10 ng/ml) and ATK (1 μM), or TFD (0.1 μM or 1 μM), or FFD (1 μM or 10 μM) overnight. Then the cells were collected and lysed. Cell lysate was used for measurement of cPLA2 activity using a commercial ELISA kit (765021, Cayman Chemical). Briefly, protein concentration of the cell lysate was measured by bicinchoninic acid assay and equal amounts of protein from each lysate sample were incubated with cPLA2 substrate (Arachidonoyl Thio-PC) at room temperature. One hour later, DTNB/EGTA was added to stop the enzyme catalysis, and then the absorbance was read at 414 nm using a plate reader (SpectraMax i3x, 5025027A, Molecular Devices).

For a further assay, the system named is IκB-α. In words: Phosphorylation of IκB-α in vivo (data not shown).
Assay [3] deals with T2, cPLA2 (Mus musculus, UniProt P47713).
T2 sequence (P47713 1-748): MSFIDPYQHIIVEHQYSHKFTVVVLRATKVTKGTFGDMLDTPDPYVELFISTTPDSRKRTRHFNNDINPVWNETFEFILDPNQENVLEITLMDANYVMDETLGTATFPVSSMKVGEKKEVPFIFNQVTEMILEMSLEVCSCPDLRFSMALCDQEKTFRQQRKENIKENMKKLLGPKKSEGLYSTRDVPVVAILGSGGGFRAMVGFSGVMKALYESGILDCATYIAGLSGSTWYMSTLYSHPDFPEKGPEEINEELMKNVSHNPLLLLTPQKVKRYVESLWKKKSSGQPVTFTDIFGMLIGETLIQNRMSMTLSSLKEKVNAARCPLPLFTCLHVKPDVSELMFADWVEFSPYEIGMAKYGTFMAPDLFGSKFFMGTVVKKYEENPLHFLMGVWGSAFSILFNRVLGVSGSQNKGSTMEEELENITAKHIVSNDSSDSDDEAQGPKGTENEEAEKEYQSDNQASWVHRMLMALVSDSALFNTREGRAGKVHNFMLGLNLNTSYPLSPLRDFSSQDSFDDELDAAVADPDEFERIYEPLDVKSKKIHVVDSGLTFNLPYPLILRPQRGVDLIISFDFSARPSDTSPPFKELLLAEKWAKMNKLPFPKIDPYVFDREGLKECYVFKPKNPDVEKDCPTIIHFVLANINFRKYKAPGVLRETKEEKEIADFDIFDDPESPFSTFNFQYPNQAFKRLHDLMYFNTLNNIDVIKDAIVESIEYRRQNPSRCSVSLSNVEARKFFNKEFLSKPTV
In words: Western blot of TNF activated phosphorylation of cPLA2 on Ser-505 in BMDMs. It is filed as cell-based, mice. Further details: endogenous in cells; host or cells: mouse bone marrow derived macrophages (BMDMs). The conditions noted are these: TNF-α 10 ng/mL; FFD 10 μM. How it is done:
as §1, §2
For orientation: In western blotting, separated proteins are transferred to a membrane and probed.

T1 sequence (P47712 whole entry): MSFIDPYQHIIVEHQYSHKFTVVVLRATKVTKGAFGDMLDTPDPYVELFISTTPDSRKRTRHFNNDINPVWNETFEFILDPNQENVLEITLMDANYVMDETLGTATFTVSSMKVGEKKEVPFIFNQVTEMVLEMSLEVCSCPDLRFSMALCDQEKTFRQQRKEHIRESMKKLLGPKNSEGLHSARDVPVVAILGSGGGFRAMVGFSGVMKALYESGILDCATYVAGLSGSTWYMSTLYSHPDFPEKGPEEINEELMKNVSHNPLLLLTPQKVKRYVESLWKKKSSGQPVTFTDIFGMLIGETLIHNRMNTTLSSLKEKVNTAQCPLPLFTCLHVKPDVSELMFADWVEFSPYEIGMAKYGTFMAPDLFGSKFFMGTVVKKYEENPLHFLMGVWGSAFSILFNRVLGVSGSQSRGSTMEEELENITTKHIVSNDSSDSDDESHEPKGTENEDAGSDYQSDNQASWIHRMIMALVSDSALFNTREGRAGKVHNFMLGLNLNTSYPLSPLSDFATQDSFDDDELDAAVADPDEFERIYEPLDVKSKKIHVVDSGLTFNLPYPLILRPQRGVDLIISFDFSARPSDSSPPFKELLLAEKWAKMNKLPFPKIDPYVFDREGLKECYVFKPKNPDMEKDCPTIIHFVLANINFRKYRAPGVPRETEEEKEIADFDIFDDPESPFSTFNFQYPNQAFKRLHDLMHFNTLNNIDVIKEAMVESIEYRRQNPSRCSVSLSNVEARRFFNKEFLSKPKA
Chain of TNF-α and TNFR1 (P19438 30-211 limits assumed, species assumed): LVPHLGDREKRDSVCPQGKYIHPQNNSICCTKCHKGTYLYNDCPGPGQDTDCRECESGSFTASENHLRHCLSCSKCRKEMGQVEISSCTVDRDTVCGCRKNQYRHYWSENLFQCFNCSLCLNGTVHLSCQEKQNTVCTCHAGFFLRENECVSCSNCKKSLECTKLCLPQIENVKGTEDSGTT

For the compound `CC(C)(C(=O)O)c1ccc(C(O)CCCN2CCC(C(O)(c3ccccc3)c3ccccc3)CC2)cc1` (stereo not drawn) [fexofenadine], the “effect of AA supplementation on inhibition of TNF-α induced release of IL-1β and IL6” value in the assay on TNF-α (AA 10 μM, FFD 10 μM) is listed as “eliminated the inhibitory influence”. Moreover, the “TNF-α induced releases of IL-1β and IL-6” value with TNF-α is “abolished”. The TNF-α-mediated osteoclastogenesis result in assay [1] is given as “markedly inhibited”. Besides, the “binding of TNF-α to TNFR1 in vitro” value on TNF-α and TNFR1 is given as “did not affect”. Also, in the assay on p38 or ERK1/2, the “phosphorylation of p38 or ERK1/2” value was “did not affect”. For the same compound, the “TNF-α induced cPLA2 activity” value at cPLA2 [2] is given as “completely abolished”. For the same compound, the “phosphorylation of NF-κB p65 upstream mediator IκB-α in vivo” value in the assay on IκB-α is recorded as “inhibited”. In addition, at cPLA2 [3], the “phosphorylation of cPLA2 on Ser-505” value is “abolished”.

`CC(C)(C)c1ccc(C(O)CCCN2CCC(C(O)(c3ccccc3)c3ccccc3)CC2)cc1` (stereo not drawn) [terfenadine]: in the assay with TNF-α, the “TNF-α induced releases of IL-1β and IL-6” value was “abolished”. Also, the TNF-α-mediated osteoclastogenesis entry in assay [1] was “markedly inhibited”. Further, the “binding of TNF-α to TNFR1 in vitro” value at TNF-α and TNFR1 is listed as “did not affect”. For the same compound, at cPLA2 [2], the “TNF-α induced cPLA2 activity” value was “completely abolished”.
